{"source": "patent US20190350909A1", "about": "“COMPOSITIONS AND METHODS FOR MODULATING HAIR GROWTH” (priority 2018, published 2019)", "type_in_all_cases": "in vivo, C57BL/6 mice", "key": {"Creb (pCreb)": {"tested_on": "Creb (pCreb)", "experiment": "Immunohistochemistry of treated skin for Creb signaling, HFSC and proliferation markers", "method": "(§1) Wildtype male and female 49-day old C57BL/6 mice were obtained from Jackson Laboratories for all topical experiments. All animals were maintained in UCLA's Division of Laboratory Medicine (DLAM)-approved pathogen-free barrier facilities and procedures were performed using protocols that adhere to the standards of the UCLA Animal Research Committee (ARC), Office of Animal Research Oversight (OARO), and the National Institutes of Health (NIH).\nAll drugs were suspended in DMSO and aliquoted at approximately 5 times IC50 or EC50 for the purposes of penetrating the epidermal barrier upon in vivo application. Aliquots were then mixed with the appropriate volume of Premium Lecithin Organogel (PLO) Base (Transderma Pharmaceuticals Inc.) and topically applied onto the shaved dorsal skin of 49 day old telogen-stage mice. Three experiment timepoints were used: acute treatment (two doses across 48 hours), 1 week treatment (three doses across five days) or long-term studies (one dose three times a week for approximately 1.5 weeks). Full-thickness dorsal skin was collected for histological analysis, cryosectioning, RNA isolation, and/or for epidermal stem cell isolation according to well-established FACS protocol. […]"}, "[1]": {"tested_on": "lactate dehydrogenase (Ldh)", "experiment": "Ldh activity assay (in situ and plate reader) on treated skin/epidermis", "conditions": "epidermis isolated from treated male or female animals (FIG. 4A)", "method": "as §1\n(§2) All drugs were suspended in DMSO and aliquoted at approximately 5 times IC50 or EC50 for the purposes of penetrating the epidermal barrier upon in vivo application. Aliquots were then mixed with the appropriate volume of Premium Lecithin Organogel (PLO) Base (Transderma Pharmaceuticals Inc.) and topically applied onto the shaved dorsal skin of 49 day old telogen-stage mice. Three experiment timepoints were used: acute treatment (two doses across 48 hours), 1 week treatment (three doses across five days) or long-term studies (one dose three times a week for approximately 1.5 weeks). Full-thickness dorsal skin was collected for histological analysis, cryosectioning, RNA isolation, and/or for epidermal stem cell isolation according to well-established FACS protocol."}, "hair cycle": {"tested_on": "hair cycle", "experiment": "Hair cycle analysis after topical treatment of shaved dorsal skin of telogen-stage mice", "conditions": "topical treatment during telogen, macroscopic and H&E follicle morphology (FIG. 2A-2C)", "method": "as §1, §2\nHair cycles were assessed macroscopically by observational and photographic documentation. A scale was established to grade hair cycle stage: 1) telogen (pink, white skin when dorsally shaved); 2) pigmentation (broad blue/grey pigment spots/patches on shaved dorsal area); 3) hair growth (dark pigmentation coupled with small patches of fur); 4) anagen (dark, full patches of fur within dorsal area) in relation to number of doses and elapsed time of treatment. H&E images of all treatment conditions were imaged at 20× magnification to assess morphological changes in control and treated skin. Hair cycle stages were also evaluated by follicular morphology into respective telogen, telogen-to-anagen transition, or anagen categories.\nA set of full-thickness skin samples were obtained from post-mortem tissue harvesting, fixed overnight in 4% paraformaldehyde, and then dehydrated for paraffin embedding and slide generation; hematoxylin and eosin staining according to standard protocol. For immunohistochemistry, formalin-fixed, paraffin-embedded tissue slides were cleared and rehydrated through a series of ethanol washes. Antigen retrieval (20 min in pressure cooker, microwaved at 100 power) was performed with 10 mM citrate. Slides were incubated in hydrogen peroxide (30 min at 4 C) and then blocked with 10% goat serum/0.1% tween for 1 hour at room temperature. Primary antibodies were added and incubated overnight. The following antibodies were used—rabbit pCreb (Cell Signaling 9198, 1:800); rabbit Sox9 (Abcam 185966, 1:800); rabbit Ki67 sp6 (Abcam 16667, 1:50); rabbit PCNA (Cell Signaling 13110, 1:700); rabbit cFos (Abcam 7963, 1:100). Sections were washed the following day with 0.1% PBST and incubated with rabbit secondary HRP-labeled polymer (Dako) for 1 hour at room temperature, and then quickly washed with 0.1% PBST and PBS. AEC chromogen (Vector) was used for the colometric development reaction. Slides were then briefly counterstained with hemotoxylin, mounted with Faramount Aqueous Mounting Media (Dako) and sealed for subsequent visualization by light microscopy.\nBright-field immunohistochemistry and hematoxylin/eosin-stained images were captured using an Olympus BX51 light microscope at 20× magnification or 40× using oil immersion."}, "Ldha protein, pCreb": {"tested_on": "Ldha protein, pCreb", "experiment": "Western blot of epidermis from treated animals for pCreb and Ldha protein", "conditions": "epidermis from treated animals (FIG. 4C)", "method": "Wildtype male and female 49-day old C57BL/6 mice were obtained from Jackson Laboratories for all topical experiments. All animals were maintained in UCLA's Division of Laboratory Medicine (DLAM)-approved pathogen-free barrier facilities and procedures were performed using protocols that adhere to the standards of the UCLA Animal Research Committee (ARC), Office of Animal Research Oversight (OARO), and the National Institutes of Health (NIH). […] All drugs were suspended in DMSO and aliquoted at approximately 5 times IC50 or EC50 for the purposes of penetrating the epidermal barrier upon in vivo application. […] Three experiment timepoints were used: acute treatment (two doses across 48 hours), 1 week treatment (three doses across five days) or long-term studies (one dose three times a week for approximately 1.5 weeks). Full-thickness dorsal skin was collected for histological analysis, cryosectioning, RNA isolation, and/or for epidermal stem cell isolation according to well-established FACS protocol."}}, "note": "Entries after “also recorded” stand apart in the source; their conditions may differ."}
{"smiles": "COc1ccccc1NC(=O)CSc1nc2c(cc1C#N)=CC1OCCOC1C=2", "note": "(stereo not shown) [#44]", "values": [{"measurement": "activation of Creb (pCreb) by immunohistochemistry", "setting": "Creb (pCreb); acute 48 hours topical treatment, HFSCs and IFE (FIG. 3B)", "value": "activation of Creb (pCreb) in HFSCs (and IFE)"}, {"measurement": "canonical Creb target expression (cFos staining)", "setting": "Creb (pCreb); acute treatment (FIG. 3B)", "value": "induced levels of transcript for canonical Creb targets"}, {"measurement": "relative Ldh activity in lysed epidermis", "setting": "[1]", "value": "high Ldh activity"}, {"measurement": "effect on hair cycle progression / reentry into anagen", "setting": "hair cycle", "value": "accelerated reentry into anagen; also recorded: strongly accelerate the hair cycle; also recorded: accelerated hair growth"}]}
{"smiles": "COc1ccc(NC(=O)CSc2nc3c(cc2C#N)=CC2OCCOC2C=3)c(OC)c1", "note": "(stereo not shown) [#61]", "values": [{"measurement": "effect on hair cycle progression / reentry into anagen", "setting": "hair cycle", "value": "accelerated reentry into anagen; also recorded: strongly accelerate the hair cycle; also recorded: accelerated hair growth"}]}
{"smiles": "CCOc1ccc(OCC)c(NC(=O)CSc2nc3c(cc2C#N)=CC2OCCOC2C=3)c1", "note": "(stereo not shown) [#62]", "values": [{"measurement": "effect on hair cycle progression / reentry into anagen", "setting": "hair cycle", "value": "strongly accelerate the hair cycle"}]}
{"smiles": "O=S(=O)(NCCNC/C=C/c1ccc(Br)cc1)c1cccc2cnccc12", "note": "[H89, reference compound]", "values": [{"measurement": "Creb activation (pCreb) (western blot)", "setting": "Ldha protein, pCreb", "value": "inhibition of Creb"}, {"measurement": "relative Ldh activity in lysed epidermis", "setting": "[1]", "value": "did not demonstrate altered Ldh activity"}, {"measurement": "effect on hair cycle progression / reentry into anagen", "setting": "hair cycle", "value": "slowed hair cycle progression; also recorded: delays reentry into anagen; also recorded: slowed the hair cycle dramatically"}, {"measurement": "effect on hair cycle progression / reentry into anagen", "setting": "hair cycle; listed as H-89", "value": "delayed reentry into anagen"}]}
